From article PMC8118430, “Utility of novel 2-furanones in synthesis of other heterocyclic compounds having anti-inflammatory activity with dual COX2/LOX inhibition” (Journal of Enzyme Inhibition and Medicinal Chemistry, 2021)
Like-named read-outs stand apart in the source and are kept apart here.

Key:
15-LOX = biological target: T1, 15-LOX (Glycine max, UniProt P08170); test: Lipoxygenase (15-LOX) inhibition assay (Cayman LOX inhibitor screening kit); format: biochemical, soybean; conditions: mean ± SD of three experiments
T1 construct: purchased Cayman Chemical 760700
T1 sequence (P08170 1-839): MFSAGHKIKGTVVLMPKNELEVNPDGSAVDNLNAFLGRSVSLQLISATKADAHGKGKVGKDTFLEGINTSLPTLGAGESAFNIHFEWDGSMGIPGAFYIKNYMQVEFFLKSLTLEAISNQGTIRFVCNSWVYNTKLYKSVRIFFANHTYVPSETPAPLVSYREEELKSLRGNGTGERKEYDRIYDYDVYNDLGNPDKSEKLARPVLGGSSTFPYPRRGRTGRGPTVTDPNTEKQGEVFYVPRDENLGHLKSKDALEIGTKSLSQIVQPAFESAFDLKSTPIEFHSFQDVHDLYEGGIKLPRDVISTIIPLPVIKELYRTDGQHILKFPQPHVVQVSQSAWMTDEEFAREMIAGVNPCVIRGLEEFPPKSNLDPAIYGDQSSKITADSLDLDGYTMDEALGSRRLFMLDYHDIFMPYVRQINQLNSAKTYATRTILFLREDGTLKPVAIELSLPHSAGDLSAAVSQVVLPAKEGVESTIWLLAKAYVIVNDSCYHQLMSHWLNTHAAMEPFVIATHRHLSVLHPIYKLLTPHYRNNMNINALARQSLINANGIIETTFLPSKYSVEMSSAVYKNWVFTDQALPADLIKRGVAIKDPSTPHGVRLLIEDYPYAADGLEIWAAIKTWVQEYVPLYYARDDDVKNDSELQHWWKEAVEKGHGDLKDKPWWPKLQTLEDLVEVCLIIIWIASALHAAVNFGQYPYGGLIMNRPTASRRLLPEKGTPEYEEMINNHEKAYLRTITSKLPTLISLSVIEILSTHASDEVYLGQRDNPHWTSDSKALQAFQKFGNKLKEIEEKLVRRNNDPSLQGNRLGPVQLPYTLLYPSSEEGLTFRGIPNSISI
Description: Briefly, in a 96-well plate, 10 µl of each test compound (dissolved in DMSO) or vehicle were pre-incubated with 90 µl of 15-LOX enzyme. The reaction was started by addition of 10 µl of substrate (AA) and the plate was shaken for at least 5 min. Then, 100 µl of chromogen supplied with the kit was added to each well to stop the enzymatic reaction and develop the colour. The absorbance was measured at 490 nm using microplate reader.
Therefore, the soybean LOX is most like the mammalian 15-LOX[59].

COX-2 = biological target: T2, COX-2 (Homo sapiens, UniProt P35354); test: Cyclooxygenase COX-2 inhibition assay (Cayman COX inhibitor screening kit, EIA); conditions: for Selectivity indexes (SI): SI = IC50 COX-1/COX-2 ratios
T2 sequence (P35354 18-604): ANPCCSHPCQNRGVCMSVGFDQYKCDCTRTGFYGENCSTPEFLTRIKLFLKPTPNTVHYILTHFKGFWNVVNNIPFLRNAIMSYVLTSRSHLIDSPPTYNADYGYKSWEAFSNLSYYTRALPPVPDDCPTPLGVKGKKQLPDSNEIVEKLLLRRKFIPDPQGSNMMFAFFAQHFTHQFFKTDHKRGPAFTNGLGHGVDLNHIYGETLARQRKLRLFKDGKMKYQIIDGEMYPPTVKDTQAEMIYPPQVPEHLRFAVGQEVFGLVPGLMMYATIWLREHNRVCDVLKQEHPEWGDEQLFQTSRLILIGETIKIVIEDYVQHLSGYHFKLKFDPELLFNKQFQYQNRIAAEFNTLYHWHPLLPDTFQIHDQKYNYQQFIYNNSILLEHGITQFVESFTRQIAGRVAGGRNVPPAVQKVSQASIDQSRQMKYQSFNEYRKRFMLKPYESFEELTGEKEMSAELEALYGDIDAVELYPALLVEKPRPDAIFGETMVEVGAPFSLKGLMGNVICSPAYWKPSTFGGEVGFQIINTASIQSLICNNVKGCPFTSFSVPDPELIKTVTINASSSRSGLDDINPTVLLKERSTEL
Description: (§1) Tested compounds were dissolved in DMSO. […] The COX inhibitor screening assay depends on direct measurement of the amount of PG2α produced in the COX reaction. […] Enzyme catalysis was terminated by addition of 50 µl 1 M HCl and 100 µl of the saturated stannous chloride solution. The PGs are quantified by enzyme immunoassay (EIA) at 410 nm.
(§2) Thus, the newly synthesised compounds were tested for their anti-inflammatory activity against isozymes COX-1 and COX-2, which were determined by the COX-catalysed transformation of AA into PGH2 that was reduced to PGF2α and detected by the EIA[53], as shown in Table 1.

TNF-α = biological target: T3, TNF-α (Homo sapiens, UniProt P01375); test: TNFR2: TNF-α [biotinylated] inhibitor screening assay; format: binding; conditions: mean ± SD of three experiments
T3 construct: purchased BPS Bioscience 79756
T3 sequence (P01375 77-233 limits assumed): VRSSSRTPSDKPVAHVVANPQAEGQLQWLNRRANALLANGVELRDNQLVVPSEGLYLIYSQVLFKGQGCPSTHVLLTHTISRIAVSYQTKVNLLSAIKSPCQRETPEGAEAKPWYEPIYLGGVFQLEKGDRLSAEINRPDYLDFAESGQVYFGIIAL
Description: The assay was performed in triplicates using TNFR2: TNF-α [biotinylated] […] First, TNFR2 is coated on a 96-well plate. Next, biotinylated TNF-α is incubated with TNFR2 on the plate. Finally, the plate was treated with streptavidin-HRP followed by addition of an HRP substrate to produce chemiluminescence, which can be measured using a chemiluminescence reader.

COX-1 = biological target: T4, COX-1 (Ovis aries, UniProt P05979); test: Cyclooxygenase COX-1 inhibition assay (Cayman COX inhibitor screening kit, EIA)
T4 sequence (P05979 25-600): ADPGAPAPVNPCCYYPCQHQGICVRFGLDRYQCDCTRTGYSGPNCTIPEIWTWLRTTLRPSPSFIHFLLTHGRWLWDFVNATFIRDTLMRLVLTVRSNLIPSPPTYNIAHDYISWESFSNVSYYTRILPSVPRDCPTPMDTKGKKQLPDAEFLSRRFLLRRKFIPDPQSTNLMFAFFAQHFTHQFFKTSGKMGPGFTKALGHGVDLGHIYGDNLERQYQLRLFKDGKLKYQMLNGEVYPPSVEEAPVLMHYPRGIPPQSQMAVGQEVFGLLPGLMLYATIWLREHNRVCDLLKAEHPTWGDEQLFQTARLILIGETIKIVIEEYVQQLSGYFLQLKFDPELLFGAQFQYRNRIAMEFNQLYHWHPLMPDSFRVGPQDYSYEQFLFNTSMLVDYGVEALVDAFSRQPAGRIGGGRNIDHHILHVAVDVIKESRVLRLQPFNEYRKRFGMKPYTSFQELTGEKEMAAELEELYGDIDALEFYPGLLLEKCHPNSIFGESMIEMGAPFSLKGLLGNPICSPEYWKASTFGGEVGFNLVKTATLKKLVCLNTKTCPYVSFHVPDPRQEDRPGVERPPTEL
Description: as §1, §2

[1] = read-out: COX 2 IC50, mean ± SD of three experiments
[2] = read-out: COX1 IC50, mean ± SD of three experiments

Structure (SMILES)	IC50 (15-LOX)	IC50 (COX-2)	Selectivity indexes (SI) (COX-2)	IC50 (TNF-α)	IC50 (COX-1)	melting point	times less active than the reference drug indomethacin as COX-1 inhibitor (COX-1; ratio of COX-1 IC50 values)	IC50 (COX-2; [1])	IC50 (COX-1; [2])
O=C1OC(c2ccc(Cl)c(Cl)c2)=CC1=Cc1ccccc1[N+](=O)[O-] [Compound 2a, 5-(3,4-Dichlorophenyl)3-(2-nitrobenzylidene)-furan-2-one]	5100 ± 100 nM	350 ± 10 nM	12.94	7.47 ± 0.12 nM	4530 ± 120 nM	259 to 261 °C			
O=C1OC(c2ccc(Cl)c(Cl)c2)=CC1=Cc1cccc([N+](=O)[O-])c1 [Compound 2b, 5-(3,4-Dichlorophenyl)3-(3-nitrobenzylidene)-furan-2-one]	4400 ± 100 nM	280 ± 10 nM	24.89	7.77 ± 1.68 nM	6970 ± 120 nM	230 to 232 °C			
CN(C)c1ccc(C=C2C=C(c3ccc(Cl)c(Cl)c3)OC2=O)cc1 [Compound 2c, 5-(3,4-Dichlorophenyl)3-(4-dimethylaminobenzylidene)-furan-2-one]	6130 ± 120 nM	420 ± 20 nM	9.36	8.2 ± 0.1 nM	3930 ± 60 nM	204 to 206 °C	39		
O=C1NC(c2ccc(Cl)c(Cl)c2)=CC1=Cc1ccccc1[N+](=O)[O-] [Compound 3a, 5-(3,4-Dichlorophenyl)-3-(2-nitrobenzylidene)-1H-pyrrol-2-one]	2330 ± 120 nM	190 ± 10 nM	44.05	5.93 ± 0.15 nM	8370 ± 120 nM	> 300 °C			
O=C1NC(c2ccc(Cl)c(Cl)c2)=CC1=Cc1cccc([N+](=O)[O-])c1 [Compound 3b, 5-(3,4-Dichlorophenyl)-3-(3-nitrobenzylidene)-1H-pyrrol-2-one]	1870 ± 150 nM	390 ± 10 nM	17.62	8.27 ± 0.12 nM	6870 ± 120 nM	> 300 °C			
CN(C)c1ccc(C=C2C=C(c3ccc(Cl)c(Cl)c3)NC2=O)cc1 [Compound 3c, 5-(3,4-Dichlorophenyl)-3-(4-dimethylaminobenzylidene)-1H-pyrrol-2-one]	2210 ± 980 nM	340 ± 10 nM	17.44	6.77 ± 0.12 nM	5930 ± 150 nM	> 300 °C			

Second part, the compound after the results:

IC50 (15-LOX)	IC50 (COX-2)	Selectivity indexes (SI) (COX-2)	IC50 (TNF-α)	IC50 (COX-1)	melting point	times less active than the reference drug indomethacin as COX-1 inhibitor (COX-1; ratio of COX-1 IC50 values)	IC50 (COX-2; [1])	IC50 (COX-1; [2])	Structure (SMILES)
5470 ± 120 nM	50 nM	221.40	4.77 ± 0.12 nM	11100 ± 150 nM	250 to 252 °C				O=C(NCc1ccccc1)C(=Cc1ccccc1[N+](=O)[O-])CC(=O)c1ccc(Cl)c(Cl)c1 [Compound 4a, N-benzyl-2-(2-nitrobenzylidene)-4-(3,4-dichlorophenyl)-4-oxobutanamide]
5870 ± 60 nM	60 nM	222.17	3.53 ± 0.12 nM	13300 ± 150 nM	124 to 126 °C				O=C(NCc1ccccc1)C(=Cc1cccc([N+](=O)[O-])c1)CC(=O)c1ccc(Cl)c(Cl)c1 [Compound 4b, N-benzyl-2-(3-nitrobenzylidene)-4-(3,4-dichlorophenyl)-4-oxobutanamide]
4670 ± 60 nM	50 nM	238.00	5.47 ± 0.12 nM	11900 ± 100 nM	241 to 243 °C				CN(C)c1ccc(C=C(CC(=O)c2ccc(Cl)c(Cl)c2)C(=O)NCc2ccccc2)cc1 [Compound 4c, N-benzyl-2-(4-dimethylaminobenzylidene]-4-(3,4-dichlorophenyl)-4-oxobutanamide]
2700 ± 950 nM	60 nM	212.17	4.93 ± 0.06 nM	12730 ± 120 nM	> 300 °C				O=C1NN(c2ccccc2)C(c2ccc(Cl)c(Cl)c2)=CC1=Cc1ccccc1[N+](=O)[O-] [Compound 5a, 6-(3,4-Dichlorophenyl)-4-(2-nitrobenzylidene)-1-phenyl-1,4-dihydropyridazin-3(2H)-one]
2430 ± 120 nM	40 nM	325.00	3.27 ± 0.12 nM	13000 ± 100 nM	> 300 °C				O=C1NN(c2ccccc2)C(c2ccc(Cl)c(Cl)c2)=CC1=Cc1cccc([N+](=O)[O-])c1 [Compound 5b, 6-(3,4-Dichlorophenyl)-4-(3-nitrobenzylidene)-1-phenyl-1,4-dihydropyridazin-3(2H)-one]
2970 ± 120 nM	90 nM	130.33	3.57 ± 0.12 nM	11700 ± 120 nM	> 300 °C				CN(C)c1ccc(C=C2C=C(c3ccc(Cl)c(Cl)c3)N(c3ccccc3)NC2=O)cc1 [Compound 5c, 6-(3,4-Dichlorophenyl)-4-(4-dimethylaminobenzylidene)-1-phenyl-1,4-dihydropyridazin-3(2H)-one]
5470 ± 120 nM		41.35	8.53 ± 0.12 nM				170 ± 10 nM	7030 ± 150 nM	O=c1[nH]nc(-c2ccc(Cl)c(Cl)c2)cc1Cc1ccccc1[N+](=O)[O-] [Compound 7a, 3-(3,4-Dichlorophenyl)-5-[(2-nitropheny)l-methyl]-1H-pyridazin-6-one]
5870 ± 60 nM		26.68	8.17 ± 0.06 nM				250 ± 10 nM	6670 ± 120 nM	O=c1[nH]nc(-c2ccc(Cl)c(Cl)c2)cc1Cc1cccc([N+](=O)[O-])c1 [Compound 7b, 3-(3,4-Dichlorophenyl)-5-[(3-nitropheny)l-methyl]-1H-pyridazin-6-one]
4670 ± 60 nM		69.42	7.57 ± 0.06 nM				120 ± 10 nM	8330 ± 60 nM	CN(C)c1ccc(Cc2cc(-c3ccc(Cl)c(Cl)c3)n[nH]c2=O)cc1 [Compound 7c, 3-(3,4-Dichlorophenyl)-5-[(4-dimethylaminopheny)l-methyl]-1H-pyridazin-6-one]
1630 ± 150 nM			4.33 ± 0.12 nM	10400 ± 120 nM					O=C(CC(=Cc1cccc([N+](=O)[O-])c1)c1n[nH]c(=S)o1)c1ccc(Cl)c(Cl)c1 [Compound 9b, 1-(3,4-Dichlorophenyl)-4-(3-nitrophenyl)-3-(2-thioxo-4,5-dihydro-1,3,4-oxadiazol-5-yl)but-3-en-1-one]
